{"source": "patent US20220117879A1", "about": "“PHOTO-PROTECTIVE PLANT-DERIVED COMPOSITION” (Ariel Scientific Innovations Ltd., priority 2019, published 2022)", "key": {"human skin explants [1]": {"test_system": "human skin explants", "experiment": "UVB-induced ROS generation in skin explants, DCFDA assay", "type": "cell-based", "conditions": "0.02-2 μg/cm^2, with UVB (FIG. 9)", "description": "(§1) Skins were obtained with permission from 30-60 year-old healthy women undergoing aesthetic abdomen surgery, after signing an informed consent. A mechanical skin press was used to section the skin to 0.8×0.8 cm^2 pieces, according to procedures described in Portugal-Cohen et al. [Exp Dermatol 2011, 20:749-755]. The skin explants were maintained in an air/liquid interface, dermal side submerged in the medium, according to procedures described in Portugal-Cohen et al. [Exp Dermatol 2011, 20:749-755] and Cohen et al. [Dead Sea and Arava Studies 2015, 7:66-74]. The human skin explants were laid in 6-well culture plates containing DMEM (Dulbecco's modified Eagle medium) supplemented with 100 units/ml penicillin and 100 μg/ml streptomycin), dermal side down in the medium and epidermis up. All samples were used after an overnight recovery.\n(§2) A common feature of UVB-induced damage is the generation of ROS (reactive oxygen species), which increases DNA damage, amplifies the generation of lipid peroxidation and hampers proteins and membranes within the cells [Schuch et al., Free Rad Biol Med 2017, 107:110-124]. […] ROS generation upon UVB radiation was evaluated in skin explants both by DCFDA (dichlorofluorescin diacetate) assay, as well as by measuring lipid peroxidation (by ELISA), which is associated with ROS generation."}, "pro-collagen": {"test_system": "pro-collagen", "experiment": "Pro-collagen level in UVB-irradiated skin explants, ELISA", "type": "cell-based, human", "conditions": "following UVB radiation (FIG. 15A)", "description": "as §1"}, "human skin explants [2]": {"test_system": "human skin explants", "experiment": "Cyclobutane pyrimidine dimers (CPD) in epidermis cells from skin explants, ELISA", "type": "cell-based", "conditions": "UVB 350 mJ/cm^2, 0.01-2 μg/cm^2 (FIG. 13)", "description": "as §1"}, "human skin explants [3]": {"test_system": "human skin explants", "experiment": "UVB-induced lipid peroxidation (MDA) in skin explants, ELISA", "type": "cell-based", "conditions": "0.02-2 μg/cm^2, with UVB (FIG. 10)", "description": "as §1, §2"}, "human skin explants [4]": {"test_system": "human skin explants", "experiment": "UVB-induced apoptosis in epidermis of human skin explants, caspase-3 activation assay", "type": "cell-based", "conditions": "24 hours after UVB 350 mJ/cm^2; 0.02-2 μg/cm^2; comparable to Ultrasol SPF 30 formulation (FIG. 8B)", "description": "as §1"}, "human skin explants [5]": {"test_system": "human skin explants", "experiment": "DNA fragmentation in epidermis cells of skin explants, COMET assay", "type": "cell-based", "conditions": "UVB 350 mJ/cm^2, 2 μg/cm^2 (FIG. 12)", "description": "as §1"}, "HaCaT cells": {"test_system": "HaCaT cells", "experiment": "Wound closure in confluent HaCaT cell in vitro model", "type": "cell-based", "conditions": "confluent HaCaT cells with induced wound, 24 hours (FIG. 16)", "procedure": "The effect of SH-401 on wound healing in skin was assessed using a confluent HaCaT cell in vitro model of wound closure."}, "human skin explants [6]": {"test_system": "human skin explants", "experiment": "Epidermal cell viability in human skin explants, MTT assay", "type": "cell-based", "conditions": "topical application, entire concentration range tested (up to maximal solubility) (FIG. 8A)", "description": "as §1\nIn order to investigate the safety and efficacy of the active compound SH-401 (isolated as described in Example 2), several experiments were performed on human skin explants, according to procedures described in the Materials and Methods section hereinabove."}, "human skin explants [7]": {"test_system": "human skin explants", "experiment": "Histological examination of UVB-irradiated skin explants", "type": "cell-based", "conditions": "UVB 350 mJ/cm^2 (FIGS. 14A-14D)", "description": "as §1"}, "[8]": {"experiment": "SPF (sun protection factor) calculated from UV absorption spectra with the Mansur equation", "type": "physicochemical", "conditions": "0.01 mg/ml", "procedure": "Absorption spectra were used to calculate SPF (sun protection factor) values using the Mansur equation, according to procedures described by Dutra et al. [Braz J Pharma Sci 2004, 40:381-385], using OptLabTM X software ([…] order to investigate UVB blocking properties of various plants, a large-scale screening of traditionally-used herbs which grow in the Judean Desert was performed. The leaves, twigs, branches, fruits, and roots of each tested plant were collected, dried, ground and extracted separately in ethanol, water, chloroform or propylene glycol methyl ether acetate (PMA) using a Soxhlet system."}, "[9]": {"test_system": "matrix metalloproteinase-1 (MMP1)", "experiment": "MMP1 in UVB-irradiated skin explants, ELISA", "type": "cell-based, human", "conditions": "following UVB radiation (FIG. 15B)", "description": "as §1"}, "TNFα": {"test_system": "TNFα", "experiment": "UVB-induced TNFα hypersecretion in human skin explants, ELISA", "type": "cell-based", "conditions": "24 hours after UVB 350 mJ/cm^2; 0.02-2 μg/cm^2; comparable to Ultrasol SPF 30 formulation (FIG. 8C)", "description": "as §1"}, "[10]": {"experiment": "Photostability of SH-401 films on PMMA slides exposed to UV radiation, SPF versus time", "type": "physicochemical", "conditions": "film on PMMA slide, 12 hours of exposure to UV radiation (FIG. 7)", "procedure": "In order to evaluate photostability, uniform films of pure SH-401 were prepared on PMMA (polymethyl methacrylate) slides by depositing 2 ml of […] solution on the slides and evaporating the solvent. The samples were then exposed to UV radiation for various time intervals, ranging up to 25 hours. The glass plates were then immersed in a mixture of ethanol/water (2:98% v/v) and the films were dissolved ultrasonically. The UV samples were then quantified by UV-visible absorption spectroscopy and the SPF value was determined according to procedures described hereinabove and plotted as a function of time."}, "[11]": {"experiment": "Antioxidant capacity by DPPH colour shift, Trolox equivalents", "conditions": "1 weight percent solution (FIG. 11)", "description": "Antioxidant capacity was further evaluated using the DPPH (diphenylpicrylhydrazyl) method. The color shift of DPPH in the presence of SH-401 and converted to units of Trolox (6-hydroxy-2,5,7,8-tetramethylchroman-2-carboxylic acid) equivalent antioxidant capacity based on a calibration curve."}}}
{"substance": "1,2,3,4,6-pentagalloyl-β-D-glucose [SH-401]", "values": [{"measurement": "UVB-induced ROS generation (DCFDA)", "setting": "human skin explants [1]", "result": "attenuated"}, {"measurement": "collagen synthesis (pro-collagen)", "setting": "pro-collagen", "result": "enhanced"}, {"measurement": "UVB-induced formation of cyclobutane pyrimidine dimers (CPD)", "setting": "human skin explants [2]", "result": "reduced"}, {"measurement": "UVB-induced lipid peroxidation (MDA)", "setting": "human skin explants [3]", "result": "attenuated"}, {"measurement": "UVB-induced apoptosis in the epidermis (caspase-3 activation)", "setting": "human skin explants [4]", "result": "attenuated"}, {"measurement": "UVB-induced DNA damage (COMET)", "setting": "human skin explants [5]", "result": "attenuated"}, {"measurement": "wound closure", "setting": "HaCaT cells", "result": "enhanced wound closure"}, {"measurement": "skin viability (MTT)", "setting": "human skin explants [6]", "result": "did not compromise skin viability"}, {"measurement": "UVB-induced pyknotic sunburn cells and reduction of the epidermal layer (histology)", "setting": "human skin explants [7]", "result": "reversed this deleterious effect of the radiation"}, {"measurement": "increase of SPF value relative to the crude extract", "setting": "[8]", "result": "more than 10 fold"}, {"measurement": "MMP1 activity", "setting": "[9]", "result": "reduced"}, {"measurement": "UVB-induced TNFα hypersecretion", "setting": "TNFα", "result": "attenuated"}, {"measurement": "stability towards UV radiation (change in SPF value)", "setting": "[10]", "result": "essentially no change in SPF value"}, {"measurement": "Trolox equivalent antioxidant capacity (DPPH)", "setting": "[11]", "result": "approximately 2,310 micromole Trolox equivalent (TE) units per 100 grams"}]}
